In patent US20240217960A1, “TRIAZINE DERIVATIVE AS COVALENT INHIBITORS OF PI3K” (UNIVERSITÄT BASEL, priority 2021, published 2024):
Where two headings read alike, the source gives them in different places. Each block holds one compound with its values, some of them ahead of it.

What was measured:
[1] = Intrinsic reactivity of the inhibitors (kchem) with βME measured with HPLC; format: physicochemical; settings: 1 mM inhibitor + 600 mM βME, n = 3
p110α (PI3Kα) = p110α (PI3Kα) (Homo sapiens, UniProt P42336); test: Determination of kinetic constants (kinact, Ki) for p110α by LanthaScreen Technology; format: binding; settings: for kinact: read-out: kinact PI3Kα; for kinact/KI: read-out: kinact/Ki PI3Kα
Sequence of p110α (PI3Kα) (P42336 whole entry): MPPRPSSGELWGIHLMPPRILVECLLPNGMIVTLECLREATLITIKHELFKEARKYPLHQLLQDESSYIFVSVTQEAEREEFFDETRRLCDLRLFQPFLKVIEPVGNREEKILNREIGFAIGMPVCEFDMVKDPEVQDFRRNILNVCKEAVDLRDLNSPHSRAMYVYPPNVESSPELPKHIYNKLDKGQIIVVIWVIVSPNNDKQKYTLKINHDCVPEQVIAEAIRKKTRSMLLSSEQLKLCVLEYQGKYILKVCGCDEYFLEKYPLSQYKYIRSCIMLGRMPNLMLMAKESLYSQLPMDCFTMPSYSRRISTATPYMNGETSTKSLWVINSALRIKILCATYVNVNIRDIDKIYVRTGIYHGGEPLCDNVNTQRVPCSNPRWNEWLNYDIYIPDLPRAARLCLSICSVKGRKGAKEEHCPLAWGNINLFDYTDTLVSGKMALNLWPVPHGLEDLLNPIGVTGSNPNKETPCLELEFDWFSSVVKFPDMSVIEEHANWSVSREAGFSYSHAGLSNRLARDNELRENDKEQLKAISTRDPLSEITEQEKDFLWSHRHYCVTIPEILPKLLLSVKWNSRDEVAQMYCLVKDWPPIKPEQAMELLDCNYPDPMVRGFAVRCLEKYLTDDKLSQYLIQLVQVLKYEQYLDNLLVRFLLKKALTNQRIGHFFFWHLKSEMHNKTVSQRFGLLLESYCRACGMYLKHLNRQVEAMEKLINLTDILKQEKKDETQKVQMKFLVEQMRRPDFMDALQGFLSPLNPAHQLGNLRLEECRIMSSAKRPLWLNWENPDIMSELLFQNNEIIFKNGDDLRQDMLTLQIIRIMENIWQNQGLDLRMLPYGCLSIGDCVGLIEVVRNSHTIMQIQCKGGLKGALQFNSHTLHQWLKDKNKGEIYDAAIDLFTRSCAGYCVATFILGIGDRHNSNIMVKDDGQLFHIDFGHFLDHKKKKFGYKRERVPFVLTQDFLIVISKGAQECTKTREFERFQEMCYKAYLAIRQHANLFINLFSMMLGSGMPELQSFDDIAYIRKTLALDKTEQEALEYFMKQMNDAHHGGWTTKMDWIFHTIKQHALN
Sequence of p110α (PI3Kα) (P27986 whole entry partner): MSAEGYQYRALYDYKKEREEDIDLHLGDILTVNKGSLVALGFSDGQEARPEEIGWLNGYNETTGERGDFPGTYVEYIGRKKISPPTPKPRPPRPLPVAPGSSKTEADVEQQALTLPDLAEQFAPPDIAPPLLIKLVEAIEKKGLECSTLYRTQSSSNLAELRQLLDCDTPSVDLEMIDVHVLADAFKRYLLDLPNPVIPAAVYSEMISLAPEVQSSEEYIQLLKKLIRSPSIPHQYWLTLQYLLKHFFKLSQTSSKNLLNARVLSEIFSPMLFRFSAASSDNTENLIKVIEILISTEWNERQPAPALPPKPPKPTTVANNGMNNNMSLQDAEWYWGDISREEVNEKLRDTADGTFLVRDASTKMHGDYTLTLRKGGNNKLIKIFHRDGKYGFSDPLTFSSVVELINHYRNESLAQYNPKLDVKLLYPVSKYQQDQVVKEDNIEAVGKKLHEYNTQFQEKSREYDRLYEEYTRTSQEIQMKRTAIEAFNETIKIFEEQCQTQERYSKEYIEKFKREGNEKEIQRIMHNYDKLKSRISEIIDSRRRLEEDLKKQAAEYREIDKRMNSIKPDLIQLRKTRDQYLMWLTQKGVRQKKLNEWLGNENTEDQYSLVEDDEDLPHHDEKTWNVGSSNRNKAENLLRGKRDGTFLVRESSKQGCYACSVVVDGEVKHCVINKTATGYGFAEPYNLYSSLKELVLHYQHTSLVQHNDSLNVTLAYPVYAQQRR

[2] = system: pSer473 of PKB/Akt in SKOV3 cells; test: In Cell Western cellular PI3K signaling and IC50 determination; format: cell-based; settings: Homo sapiens
Description: Protein phosphorylation was detected as follows: pSer473 of PKB/Akt with rabbit polyclonal antibody from Cell Signaling Technology (CST) (#4058) by In-Cell Western assays, where 1.2×10^4 SKOV3 cells/well in 96-well plates were plated (Cell Carrier, PerkinElmer) for 24 hours (37° C., 5% CO2), as described in Ref. ^25.

[3] = dissociation constant of the first reversible binding, global fitting with KinTek, read-out: Ki PI3Kα
[4] = maximum potential rate of covalent bond formation, global fitting with KinTek
[5] = SK-OV-3, SKOV3 cells, 2 or 3 independent measurements, read-out: IC50 pPKB (S473) SKOV3
[6] = Ki value determined after 60 min of drug incubation with PI3Kα, 2 independent measurements, read-out: Ki PI3Kα (footnote d)
[7] = SK-OV-3, read-out: IC50 pPKB (S473) SKOV3

Structure (SMILES): C=CC(=O)CCCCC(=O)N1CCN(c2nc(-c3cnc(N)nc3C(F)F)nc(N3CCOCC3)n2)CC1 [Compound 1, 1-(4-(4-(2-amino-4-(difluoromethyl)pyrimidin-5-yl)-6-morpholino-1,3,5-triazin-2-yl)piperazin-1-yl)oct-7-ene-1,6-dione]
- kchem (intrinsic reactivity of the inhibitors) [1]: >>1.00 × 10^−1 M^−1 · s^−1
- Ki (p110α (PI3Kα); [3]): 5.87 nM
- kinact (p110α (PI3Kα); [4]): 0.0245 s⁻¹
- kinact/KI (p110α (PI3Kα)): 4.2e+06 M⁻¹ s⁻¹

Structure (SMILES): C/C=C/C(=O)CCCCC(=O)N1CCN(c2nc(-c3cnc(N)nc3C(F)F)nc(N3CCOCC3)n2)CC1 [Compound 2, (E)-1-(4-(4-(2-amino-4-(difluoromethyl)pyrimidin-5-yl)-6-morpholino-1,3,5-triazin-2-yl)piperazin-1-yl)non-7-ene-1,6-dione]
- IC50 [2, 5]: 46.9 nM
- kchem (intrinsic reactivity of the inhibitors) [1]: 0.0857 M⁻¹ s⁻¹
- Ki (p110α (PI3Kα); [3]): 5.76 nM
- kinact (p110α (PI3Kα); [4]): 0.00392 s⁻¹
- kinact/KI (p110α (PI3Kα)): 693000 M⁻¹ s⁻¹

Structure (SMILES): CC(C)=CC(=O)CCCCC(=O)N1CCN(c2nc(-c3cnc(N)nc3C(F)F)nc(N3CCOCC3)n2)CC1 [Compound 5, 1-(4-(4-(2-amino-4-(difluoromethyl)pyrimidin-5-yl)-6-morpholino-1,3,5-triazin-2-yl)piperazin-1-yl)-8-methylnon-7-ene-1,6-dione]
- IC50 [2, 5]: 52.8 nM
- kchem (intrinsic reactivity of the inhibitors) [1]: 0.00022 M⁻¹ s⁻¹
- Ki (p110α (PI3Kα); [3]): 10.1 nM
- kinact (p110α (PI3Kα); [4]): 0.000187 s⁻¹
- kinact/KI (p110α (PI3Kα)): 18700 M⁻¹ s⁻¹

Structure (SMILES): C=CC(=O)N(C)CCCC(=O)N1CCN(c2nc(-c3cnc(N)nc3C(F)F)nc(N3CCOCC3)n2)CC1 [Compound 7, N-(4-(4-(4-(2-amino-4-(difluoromethyl)pyrimidin-5-yl)-6-morpholino-1,3,5-triazin-2-yl)piperazin-1-yl)-4-oxobutyl)-N-methylacrylamide]
- kchem (intrinsic reactivity of the inhibitors) [1]: 0.000228 M⁻¹ s⁻¹
- Ki (p110α (PI3Kα); [3]): 7.22 nM
- kinact (p110α (PI3Kα)): 6.9e-05 s⁻¹
- kinact/KI (p110α (PI3Kα)): 9600 M⁻¹ s⁻¹

Structure (SMILES): C/C=C/C(=O)N(C)CCCC(=O)N1CCN(c2nc(-c3cnc(N)nc3C(F)F)nc(N3CCOCC3)n2)CC1 [Compound 9, (E)-N-(4-(4-(4-(2-amino-4-(difluoromethyl)pyrimidin-5-yl)-6-morpholino-1,3,5-triazin-2-yl)piperazin-1-yl)-4-oxobutyl)-N-methylbut-2-enamide]
- kchem (intrinsic reactivity of the inhibitors) [1]: 3.35e-06 M⁻¹ s⁻¹
- Ki (p110α (PI3Kα); [6]): 5.4 nM

Structure (SMILES): CC(C)=CC(=O)N(C)CCCC(=O)N1CCN(c2nc(-c3cnc(N)nc3C(F)F)nc(N3CCOCC3)n2)CC1 [Compound 11, N-(4-(4-(4-(2-amino-4-(difluoromethyl)pyrimidin-5-yl)-6-morpholino-1,3,5-triazin-2-yl)piperazin-1-yl)-4-oxobutyl)-N,3-dimethylbut-2-enamide]
- kchem (intrinsic reactivity of the inhibitors) [1]: <<1.00 × 10^−7 M^−1 · s^−1
- Ki (p110α (PI3Kα); [6]): 6.95 nM

Structure (SMILES): C=CC(=O)NCCCC(=O)N1CCN(c2nc(-c3cnc(N)nc3C(F)F)nc(N3CCOCC3)n2)CC1 [Compound 13, N-(4-(4-(4-(2-amino-4-(difluoromethyl)pyrimidin-5-yl)-6-morpholino-1,3,5-triazin-2-yl)piperazin-1-yl)-4-oxobutyl)acrylamide]
- kchem (intrinsic reactivity of the inhibitors) [1]: 0.000138 M⁻¹ s⁻¹
- Ki (p110α (PI3Kα); [3]): 5.36 nM
- kinact (p110α (PI3Kα); [4]): 7.6e-05 s⁻¹
- kinact/KI (p110α (PI3Kα)): 14200 M⁻¹ s⁻¹

Structure (SMILES): CC(C)=CC(=O)NCCCC(=O)N1CCN(c2nc(-c3cnc(N)nc3C(F)F)nc(N3CCOCC3)n2)CC1 [Compound 17, N-(4-(4-(4-(2-amino-4-(difluoromethyl)pyrimidin-5-yl)-6-morpholino-1,3,5-triazin-2-yl)piperazin-1-yl)-4-oxobutyl)-3-methylbut-2-enamide]
- kchem (intrinsic reactivity of the inhibitors) [1]: <<1.00 × 10^−7 M^−1 · s^−1

Structure (SMILES): C/C=C/C(=O)CCC(=O)N1CCN(c2nc(-c3cnc(N)nc3C(F)F)nc(N3CCOCC3)n2)CC1 [Compound 19, (E)-1-(4-(4-(2-amino-4-(difluoromethyl)pyrimidin-5-yl)-6-morpholino-1,3,5-triazin-2-yl)piperazin-1-yl)hept-5-ene-1,4-dione]
- IC50 [2, 5]: 20 nM
- kchem (intrinsic reactivity of the inhibitors) [1]: 0.0484 M⁻¹ s⁻¹
- Ki (p110α (PI3Kα); [3]): 1.51 nM
- kinact (p110α (PI3Kα); [4]): 0.0002 s⁻¹
- kinact/KI (p110α (PI3Kα)): 130000 M⁻¹ s⁻¹

Structure (SMILES): C/C=C/C(=O)CCCC(=O)N1CCN(c2nc(-c3cnc(N)nc3C(F)F)nc(N3CCOCC3)n2)CC1 [Compound 20, (E)-1-(4-(4-(2-amino-4-(difluoromethyl)pyrimidin-5-yl)-6-morpholino-1,3,5-triazin-2-yl)piperazin-1-yl)oct-6-ene-1,5-dione]
- IC50 [2, 5]: 38.8 nM
- kchem (intrinsic reactivity of the inhibitors) [1]: 0.0806 M⁻¹ s⁻¹
- Ki (p110α (PI3Kα); [3]): 6.69 nM
- kinact (p110α (PI3Kα); [4]): 0.00121 s⁻¹
- kinact/KI (p110α (PI3Kα)): 183000 M⁻¹ s⁻¹

- kinact (p110α (PI3Kα); [4]): 1.13e-05 s⁻¹
Structure (SMILES): CC(C)=CC(=O)CCC(=O)N1CCN(c2nc(-c3cnc(N)nc3C(F)F)nc(N3CCOCC3)n2)CC1 [Compound 22, 1-(4-(4-(2-amino-4-(difluoromethyl)pyrimidin-5-yl)-6-morpholino-1,3,5-triazin-2-yl)piperazin-1-yl)-6-methylhept-5-ene-1,4-dione]
- kchem (intrinsic reactivity of the inhibitors) [1]: 0.000188 M⁻¹ s⁻¹

Structure (SMILES): CC(C)=CC(=O)CCCC(=O)N1CCN(c2nc(-c3cnc(N)nc3C(F)F)nc(N3CCOCC3)n2)CC1 [Compound 23, 1-(4-(4-(2-amino-4-(difluoromethyl)pyrimidin-5-yl)-6-morpholino-1,3,5-triazin-2-yl)piperazin-1-yl)-7-methyloct-6-ene-1,5-dione]
- kchem (intrinsic reactivity of the inhibitors) [1]: 0.000224 M⁻¹ s⁻¹
- Ki (p110α (PI3Kα); [3]): 8.06 nM
- kinact (p110α (PI3Kα); [4]): 2.56e-05 s⁻¹
- kinact/KI (p110α (PI3Kα)): 3210 M⁻¹ s⁻¹

- IC50 [2, 5]: 89.2 nM
Structure (SMILES): CC(C)=CC(=O)CCCCCC(=O)N1CCN(c2nc(-c3cnc(N)nc3C(F)F)nc(N3CCOCC3)n2)CC1 [Compound 24, 1-(4-(4-(2-amino-4-(difluoromethyl)pyrimidin-5-yl)-6-morpholino-1,3,5-triazin-2-yl)piperazin-1-yl)-9-methyldec-8-ene-1,7-dione]
- kchem (intrinsic reactivity of the inhibitors) [1]: 0.000173 M⁻¹ s⁻¹

Structure (SMILES): C=CC(=O)N1CCC(C(=O)NCC(=O)N2CCN(c3nc(-c4cnc(N)nc4C(F)F)nc(N4CCOCC4)n3)CC2)CC1 [Compound 43, 1-acryloyl-N-(2-(4-(4-(2-amino-4-(difluoromethyl)pyrimidin-5-yl)-6-morpholino-1,3,5-triazin-2-yl)piperazin-1-yl)-2-oxoethyl)piperidine-4-carboxamide]
- IC50 [2, 7]: 82 nM
- kchem (intrinsic reactivity of the inhibitors) [1]: 0.00037 M⁻¹ s⁻¹

Structure (SMILES): C=CC(=O)N1CCC(C(=O)N(C)CC(=O)N2CCN(c3nc(-c4cnc(N)nc4C(F)F)nc(N4CCOCC4)n3)CC2)CC1 [Compound 54, 1-acryloyl-N-(2-(4-(4-(2-amino-4-(difluoromethyl)pyrimidin-5-yl)-6-morpholino-1,3,5-triazin-2-yl)piperazin-1-yl)-2-oxoethyl)-N-methylpiperidine-4-carboxamide]
- IC50 [2, 7]: 86 nM
- kchem (intrinsic reactivity of the inhibitors) [1]: 0.000354 M⁻¹ s⁻¹

- IC50 [2, 5]: 5.96 nM
- Ki (p110α (PI3Kα); [3]): 1 nM
- kinact (p110α (PI3Kα); [4]): 0.0108 s⁻¹
- kinact/KI (p110α (PI3Kα)): 1.08e+07 M⁻¹ s⁻¹
Structure (SMILES): N#C/C(=C/C1CC1)C(=O)N1CCC(COCC(=O)N2CCN(c3nc(-c4cnc(N)nc4C(F)F)nc(N4CCOCC4)n3)CC2)CC1 [Compound 118, (Z)-2-(4-((2-(4-(4-(2-amino-4-(difluoromethyl)pyrimidin-5-yl)-6-morpholino-1,3,5-triazin-2-yl)piperazin-1-yl)-2-oxoethoxy)methyl)piperidine-1-carbonyl)-3-cyclopropylacrylonitrile]
